This is an account of results in patent publication USRE45313E1, “Exendin variant peptides” (priority 1999, dated 2014).

What is called half-life is the time in which the quantity being followed falls by half. Higher therefore signals slow loss.

Structures are written as SMILES.

One series deals with T1, leucine aminopeptidase (Sus scrofa, UniProt P28839).
T1 sequence (P28839 1-519): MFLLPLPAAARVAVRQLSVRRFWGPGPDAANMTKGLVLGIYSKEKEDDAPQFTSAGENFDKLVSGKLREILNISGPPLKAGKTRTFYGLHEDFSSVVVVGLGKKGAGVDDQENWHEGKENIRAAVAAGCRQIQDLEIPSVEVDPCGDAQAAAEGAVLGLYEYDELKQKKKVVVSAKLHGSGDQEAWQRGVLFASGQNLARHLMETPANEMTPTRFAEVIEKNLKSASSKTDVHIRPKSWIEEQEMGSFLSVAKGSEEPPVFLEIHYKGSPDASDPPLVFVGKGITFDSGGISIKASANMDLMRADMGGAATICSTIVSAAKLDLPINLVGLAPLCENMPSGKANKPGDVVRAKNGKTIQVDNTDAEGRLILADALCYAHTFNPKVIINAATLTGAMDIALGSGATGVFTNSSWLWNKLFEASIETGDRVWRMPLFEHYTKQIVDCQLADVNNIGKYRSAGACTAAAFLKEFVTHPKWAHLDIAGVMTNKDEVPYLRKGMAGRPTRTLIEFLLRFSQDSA
The experiment in a line: In vitro stability in leucine aminopeptidase solution. The following applies: pH 7.4; for half-life at 0.1 mg/ml: isolated enzyme aminopeptidase. As to the method: (§1) A SHT200D block heater from Stuart Scientific was used for heating of the peptide/enzyme solutions during the stability experiments. The degradation of the test compounds was studied at 37° C. in 50 mM phosphate buffer solutions of pH 7.4 containing leucine aminopeptidase (25 U/ml) or carboxypeptidase A (1 U/ml) or 100 mM ammoniumbicarbonate buffer of pH 8.0 containing dipeptidyl aminopeptidase IV (0.5 U/ml). Experiments were initiated by addition of an aliquot (100 μl) of a stock solution (1 mg/ml) of the peptide in water to 900 μl preheated enzyme solution in an Eppendorf microvial giving an initial concentration of 0.1 mg/ml (˜1.7·10−5-1.8·10−5 M) of the peptide. The peptide/enzyme solution was kept at 37° C. and at appropriate time intervals samples of 100 μl were withdrawn from the peptide/enzyme solution and mixed thoroughly with 20 μl 25% TFA in acetonitrile in order to stop the enzymatic degradation process. The inactivated samples were transferred to autosampler vials and analysed for content of intact test compound by HPLC as described below.
(§2) Samples from the stability experiments performed as described above were analysed by gradient HPLC analysis using the instrumentation described above and the following experimental conditions.
(§3) In vitro stability studies with the present peptides and peptide conjugates in the presence of selected proteolytic enzymes are applied as a tool for evaluating the protection of said peptides against proteolysis in vivo.
(§4) Water used was of highest quality obtained from a Milli-Q water treatment system (Millipore, Bedford, Mass., U.S.A.). Acetonitrile (ACN) was of super gradient quality obtained from Labscan Ltd. (Dublin, Ireland). […] Leucine aminopeptidase (EC 3.4.11.1), Carboxypeptidase A (EC 3.4.17.1) and Dipeptidyl peptidase (Dipeptidyl aminopeptidase IV, EC 3.4.14.5) were all obtained from Sigma (St. Louis, Mo., U.S.A.). Gradient HPLC analysis was done using a Hewlett Packard HP 1100 HPLC system consisting of a HP 1100 Binary Pump, a HP 1100 Autosampler, A HP 1100 Column Thermostat and a HP 1100 Variable Wavelength Detector. Hewlett Packard Chem-station for LC software (Rev. A.06.01) was used for instrument control and data acquisition. A Vydac 238TP54 (150×4.6 mm I.D.) column packed with 5 μm, C18, 300 Å

The next series has as its target T2, carboxypeptidase A (Bos taurus, UniProt P00730).
T2 sequence (P00730 111-419): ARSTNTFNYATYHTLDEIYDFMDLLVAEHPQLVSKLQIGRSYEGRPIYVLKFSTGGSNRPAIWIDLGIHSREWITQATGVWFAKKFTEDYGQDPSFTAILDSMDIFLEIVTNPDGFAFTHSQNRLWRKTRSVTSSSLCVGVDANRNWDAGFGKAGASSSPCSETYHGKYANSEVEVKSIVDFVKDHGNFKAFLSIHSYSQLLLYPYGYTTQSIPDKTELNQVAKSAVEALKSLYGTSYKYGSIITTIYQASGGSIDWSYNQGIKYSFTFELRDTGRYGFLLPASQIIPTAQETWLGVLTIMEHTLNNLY
The experiment in a line: In vitro stability in carboxypeptidase A solution. The following applies: pH 7.4; for half-life at 0.1 mg/ml: isolated enzyme carboxypeptidase. The method, then: as §1, §2, §3, §4

For series [1], the target named is dipeptidyl aminopeptidase IV (Sus scrofa, UniProt P22411). The experiment in a line: In vitro stability in dipeptidyl aminopeptidase IV solution. To be noted: pH 8; for half-life at 0.1 mg/ml: isolated enzyme dpp iv. As to the method:
as §1, §2, §3, §4

The next series deals with ob/ob mice. The experiment in a line: Blood glucose levels in ob/ob mice after peroral and intraperitoneal administration (Example 25). In kind it is in vivo. The text has this:
Forty female diabetic ob/ob mice (Umeä strain, Bomholtgaard), which are obese due to a dominant mutant leptin (Tomita, T., Doull, V., Pollock, H. G., and Krizsan, D. 1992. Pancreatic islets of obese hyperglycemic mice (ob/ob). Pancreas 7: 367-75) were housed (3 mice/cage) under controlled ambient conditions following a 12:12-h light: dark cycle and fed standard Altromin no 1324 diet with free access to tap water. At arrival the animals were 8 weeks of age. The mice were allowed 2 weeks of acclimatization before experiments were initiated. […] Handling of the mice one and three days before the experiment was performed in order to reduce stress-induced BG excursions. On the day of the experiment, blood was taken from the tip of the tail 2-3 hours after the light was turned on. A single drop of blood (<5 μl) was dropped on the glucose strip for analysis and measured by an Elite Autoanalyser, Bayer, Denmark. Whole blood glucose (BG) concentration was analysed by the immobilised glucose oxidase method. […] Six animals with BG <5.8 mM were excluded from the study (total n=36). The remaining animals were stratified based on their BG levels in order to ensure that the mean BG was similar among groups.
Various concentrations of each peptide are administered orally and intraperitoneally to ob/ob mice to determine if these compounds affect blood glucose levels. The experimental conditions used were the same as described in Example 24.
Solutions are prepared on the morning of dosing, immediately before the animals are administered. The same solutions are used for both peroral and interperitoneal administration. All peptides are dissolved in sterile isotonic NaCl and given in a volume of 0.2 ml. As negative control, saline is administered perorally.
In order to analyse the effects of the compounds, the absolute and the relative (% of t=0) difference from baseline was calculated for each time point.

Sequence of dipeptidyl aminopeptidase IV (P22411 whole entry): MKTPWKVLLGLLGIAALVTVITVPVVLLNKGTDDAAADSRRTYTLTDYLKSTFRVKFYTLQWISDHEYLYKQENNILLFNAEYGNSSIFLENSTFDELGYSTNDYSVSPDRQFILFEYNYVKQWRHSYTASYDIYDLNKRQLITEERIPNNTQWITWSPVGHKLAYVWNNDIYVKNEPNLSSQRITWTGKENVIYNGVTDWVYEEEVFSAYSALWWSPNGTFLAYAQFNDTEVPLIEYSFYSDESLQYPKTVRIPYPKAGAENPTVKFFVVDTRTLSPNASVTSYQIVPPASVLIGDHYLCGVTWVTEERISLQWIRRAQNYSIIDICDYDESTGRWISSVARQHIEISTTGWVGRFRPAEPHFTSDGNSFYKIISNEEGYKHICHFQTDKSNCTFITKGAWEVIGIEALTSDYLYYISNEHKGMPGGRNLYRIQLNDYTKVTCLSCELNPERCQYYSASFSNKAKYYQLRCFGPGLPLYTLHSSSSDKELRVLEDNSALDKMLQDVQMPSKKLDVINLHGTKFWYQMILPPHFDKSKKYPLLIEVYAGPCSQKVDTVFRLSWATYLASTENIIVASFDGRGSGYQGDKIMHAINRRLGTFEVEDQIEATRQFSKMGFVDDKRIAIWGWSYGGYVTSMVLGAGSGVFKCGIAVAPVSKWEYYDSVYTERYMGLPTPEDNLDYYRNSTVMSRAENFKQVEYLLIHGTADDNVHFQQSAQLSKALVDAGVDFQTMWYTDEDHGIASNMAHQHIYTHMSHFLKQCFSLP

With `CC[C@H](C)[C@H](NC(=O)[C@H](Cc1ccccc1)NC(=O)[C@H](CCC(=O)O)NC(=O)[C@H](CCCCN)NC(=O)[C@H](C)NC(=O)[C@H](C)NC(=O)[C@H](CCC(N)=O)NC(=O)CNC(=O)[C@H](CCC(=O)O)NC(=O)[C@H](CC(C)C)NC(=O)[C@H](Cc1ccc(O)cc1)NC(=O)[C@H](CO)NC(=O)[C@H](CO)NC(=O)[C@@H](NC(=O)[C@H](CC(=O)O)NC(=O)[C@H](CO)NC(=O)[C@@H](NC(=O)[C@H](Cc1ccccc1)NC(=O)[C@@H](NC(=O)CNC(=O)[C@H](CCC(=O)O)NC(=O)CNC(=O)[C@@H](N)Cc1cnc[nH]1)[C@@H](C)O)[C@@H](C)O)C(C)C)C(=O)N[C@@H](C)C(=O)N[C@@H](Cc1c[nH]c2ccccc12)C(=O)N[C@@H](CC(C)C)C(=O)N[C@H](C(=O)N[C@@H](CCCCN)C(=O)NCC(=O)N[C@@H](CCCNC(=N)N)C(N)=O)C(C)C` [Compound (iii), reference compound], the values for the half-life at 0.1 mg/ml (at leucine aminopeptidase; on carboxypeptidase A; in series [1]) were 11.6 h, 2.12 h and 0.933 h, respectively.

On to `CC[C@H](C)[C@H](NC(=O)[C@H](Cc1ccccc1)NC(=O)[C@H](CCC(=O)O)NC(=O)[C@H](CCCCN)NC(=O)[C@H](C)NC(=O)[C@H](C)NC(=O)[C@H](CCC(N)=O)NC(=O)CNC(=O)[C@H](CCC(=O)O)NC(=O)[C@H](CC(C)C)NC(=O)[C@H](Cc1ccc(O)cc1)NC(=O)[C@H](CO)NC(=O)[C@H](CO)NC(=O)[C@@H](NC(=O)[C@H](CC(=O)O)NC(=O)[C@H](CO)NC(=O)[C@@H](NC(=O)[C@H](Cc1ccccc1)NC(=O)[C@@H](NC(=O)CNC(=O)[C@H](CCC(=O)O)NC(=O)CNC(=O)[C@@H](N)Cc1c[nH]cn1)[C@@H](C)O)[C@@H](C)O)C(C)C)C(=O)N[C@@H](C)C(=O)N[C@@H](Cc1c[nH]c2ccccc12)C(=O)N[C@@H](CC(C)C)C(=O)N[C@H](C(=O)N[C@@H](CCCCN)C(=O)NCC(=O)N[C@@H](CCCNC(=N)N)C(=O)N[C@@H](CCCCN)C(=O)N[C@@H](CCCCN)C(=O)N[C@@H](CCCCN)C(=O)N[C@@H](CCCCN)C(=O)N[C@@H](CCCCN)C(=O)N[C@@H](CCCCN)C(N)=O)C(C)C` [Compound 4], for which the half-life at 0.1 mg/ml was approximately 36 h on leucine aminopeptidase, 2.42 h on carboxypeptidase A and 4.87 h in series [1]. The “blood glucose relative to baseline” value in the series on ob/ob mice (1 μg po, 1 hour) is reported as 99 % of t=0; with ob/ob mice (1 μg po, 2 hours), 89 % of t=0; with ob/ob mice (1 μg po, 4 hours), 84 % of t=0; with ob/ob mice (10 μg po, 1 hour) it was 98 % of t=0; with ob/ob mice (10 μg po, 2 hours) it was 95 % of t=0; with ob/ob mice (10 μg po, 4 hours) it was 81 % of t=0. The “blood glucose relative to baseline” value was 83 % of t=0 in the series with ob/ob mice (100 μg ip, 1 hour); 58 % of t=0 in the series with ob/ob mice (100 μg ip, 2 hours); 56 % of t=0 in the series on ob/ob mice (100 μg ip, 4 hours); 72 % of t=0 in the series with ob/ob mice (100 μg po, 1 hour); 70 % of t=0 in the series with ob/ob mice (100 μg po, 2 hours); 58 % of t=0 in the series with ob/ob mice (100 μg po, 4 hours). Besides, the “blood glucose relative to baseline” value in the series with ob/ob mice (1000 μg po, 1 hour) is 128 % of t=0; in the series with ob/ob mice (1000 μg po, 2 hours), 72 % of t=0; in the series on ob/ob mice (1000 μg po, 4 hours), 78 % of t=0.

In the case of `CCCCCCCCCCCCCCCC(=O)NCCCC[C@H](NC(=O)[C@H](CCCNC(=N)N)NC(=O)CNC(=O)[C@H](CCCCN)NC(=O)[C@@H](NC(=O)[C@H](CC(C)C)NC(=O)[C@H](Cc1c[nH]c2ccccc12)NC(=O)[C@H](C)NC(=O)[C@@H](NC(=O)[C@H](Cc1ccccc1)NC(=O)[C@H](CCC(=O)O)NC(=O)[C@H](CCCCN)NC(=O)[C@H](C)NC(=O)[C@H](C)NC(=O)[C@H](CCC(N)=O)NC(=O)CNC(=O)[C@H](CCC(=O)O)NC(=O)[C@H](CC(C)C)NC(=O)[C@H](Cc1ccc(O)cc1)NC(=O)[C@H](CO)NC(=O)[C@H](CO)NC(=O)[C@@H](NC(=O)[C@H](CC(=O)O)NC(=O)[C@H](CO)NC(=O)[C@@H](NC(=O)[C@H](Cc1ccccc1)NC(=O)[C@@H](NC(=O)CNC(=O)[C@H](CCC(=O)O)NC(=O)CNC(=O)[C@@H](N)Cc1c[nH]cn1)[C@@H](C)O)[C@@H](C)O)C(C)C)[C@@H](C)CC)C(C)C)C(=O)N[C@@H](CCCCN)C(=O)N[C@@H](CCCCN)C(=O)N[C@@H](CCCCN)C(=O)N[C@@H](CCCCN)C(=O)N[C@@H](CCCCN)C(=O)N[C@@H](CCCCN)C(N)=O` [Compound 5], the half-life is more than 72 h on leucine aminopeptidase, more than 48 h on carboxypeptidase A and 7.33 h in series [1]. In addition, the “blood glucose relative to baseline” value in the series with ob/ob mice (1 μg po, 1 hour) is listed as 111 % of t=0; with ob/ob mice (1 μg po, 2 hours), 133 % of t=0; in the series on ob/ob mice (1 μg po, 4 hours), 114 % of t=0; with ob/ob mice (10 μg po, 1 hour) it was 90 % of t=0; in the series with ob/ob mice (10 μg po, 2 hours), 120 % of t=0; in the series with ob/ob mice (10 μg po, 4 hours), 126 % of t=0. Besides, the “blood glucose relative to baseline” value in the series with ob/ob mice (100 μg ip, 1 hour) is recorded as 63 % of t=0; with ob/ob mice (100 μg ip, 2 hours), 50 % of t=0; in the series with ob/ob mice (100 μg ip, 4 hours), 52 % of t=0; with ob/ob mice (100 μg po, 1 hour), 97 % of t=0; with ob/ob mice (100 μg po, 2 hours), 140 % of t=0; in the series with ob/ob mice (100 μg po, 4 hours) it was 107 % of t=0. For the same compound, the “blood glucose relative to baseline” value in the series on ob/ob mice (1000 μg po, 1 hour) is given as 73 % of t=0; with ob/ob mice (1000 μg po, 2 hours), 75 % of t=0; with ob/ob mice (1000 μg po, 4 hours) it was 67 % of t=0.
